Key:
Type in all cases: in vivo
[1] = test system: goosegrass (Eleusine indica); experiment: Test B pre-/postemergence plant response; settings: Preemergence
Description: (§1) Seeds of plant species selected from blackgrass (Alopecurus myosuroides), downy bromegrass (Bromus tectorum), green foxtail (Setaria viridis), Italian ryegrass (Lolium multiflorum), wheat (Triticum aestivum), wild oat (Avena fatua), catchweed bedstraw (Galium aparine), bermudagrass (Cynodon dactylon), surinam grass (Brachiaria decumbens), cocklebur (Xanthium strumarium), corn (Zea mays), large crabgrass (Digitaria sanguinalis), woolly cupgrass (Eriochloa villosa), giant foxtail (Setaria faberii), goosegrass (Eleusine indica), johnsongrass (Sorghum halepense), kochia (Kochia scoparia), lambsquarters (Chenopodium album), morningglory (Ipomoea coccinea), eastern black (E.B.) nightshade (Solanum ptycanthum), yellow nutsedge (Cyperus esculentus), pigweed (Amaranthus retroflexus), common ragweed (Ambrosia elation), Russian thistle (Salsola iberica), soybean (Glycine max), common (oilseed) sunflower (Helianthus annuus), and velvetleaf (Abutilon theophrasti) were planted and treated preemergence with test chemicals formulated in a non-phytotoxic solvent mixture which included a surfactant.
(§2) At the same time, plants selected from these crop and weed species and also winter barley (Hordeum vulgare), canarygrass (Phalaris minor), chickweed (Stellaria media) and windgrass (Apera spica-venti) were treated with postemergence applications of some of the test chemicals formulated in the same manner. Plants ranged in height from 2 to 18 cm (1- to 4-leaf stage) for postemergence treatments.
(§3) Plant species in the flooded paddy test consisted of rice (Oryza sativa), umbrella sedge (Cyperus difformis), ducksalad (Heteranthera limosa) and barnyardgrass (Echinochloa crus-galli) grown to the 2-leaf stage for testing. At time of treatment, test pots were flooded to 3 cm above the soil surface, treated by application of test compounds directly to the paddy water, and then maintained at that water depth for the duration of the test. Treated plants and controls were maintained in a greenhouse for 13 to 15 days, after which time all species were compared to controls and visually evaluated. Plant response ratings, summarized in Table B, are based on a scale of 0 to 100 where 0 is no effect and 100 is complete control. A dash (-) response means no test result.

[2] = test system: surinam grass (Brachiaria decumbens); experiment: Test B pre-/postemergence plant response; settings: Preemergence
Description: as §1, §2, §3

[3] = test system: giant foxtail (Setaria faberii); experiment: Test B pre-/postemergence plant response; settings: Preemergence
Description: as §1, §2, §3

[4] = test system: morningglory (Ipomoea coccinea); experiment: Test B pre-/postemergence plant response; settings: Preemergence
Description: as §1, §2, §3

[5] = test system: common (oilseed) sunflower (Helianthus annuus); experiment: Test B pre-/postemergence plant response; settings: Preemergence
Description: as §1, §2, §3

[6] = test system: wheat (Triticum aestivum); experiment: Test B pre-/postemergence plant response; settings: Preemergence
Description: as §1, §2, §3

[7] = test system: downy bromegrass (Bromus tectorum); experiment: Test B pre-/postemergence plant response; settings: Preemergence
Description: as §1, §2, §3

[8] = test system: eastern black (E.B.) nightshade (Solanum ptycanthum); experiment: Test B pre-/postemergence plant response; settings: Preemergence
Description: as §1, §2, §3

soybean (Glycine max) = experiment: Test B pre-/postemergence plant response; settings: Preemergence
Description: as §1, §2, §3

[9] = test system: Russian thistle (Salsola iberica); experiment: Test B pre-/postemergence plant response; settings: Preemergence
Description: as §1, §2, §3

[10] = test system: ducksalad (Heteranthera limosa); experiment: Test B flooded paddy test plant response
Procedure, shortened: (§4)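 2-leaf plants; pots flooded 3 cm above soil; compound added to paddy water; depth maintained. Greenhouse 13–15 d. Visual rating vs controls, 0 (no effect) to 100 (complete control); dash = no result.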

[11] = test system: barnyardgrass (Echinochloa crus-galli); experiment: Test B flooded paddy test plant response
Procedure, shortened: as §4

[12] = test system: umbrella sedge (Cyperus difformis); experiment: Test B flooded paddy test plant response
Procedure, shortened: as §4

rice (Oryza sativa) = experiment: Test B flooded paddy test plant response
Procedure, shortened: as §4

[13] = 16 g ai/ha, scale 0 to 100 (0 no effect, 100 complete control)
[14] = 31 g ai/ha, 0 to 100 scale, 0 no effect, 100 complete control
[15] = 31 g ai/ha, scale 0 to 100 (0 no effect, 100 complete control)
[16] = 62 g ai/ha, 0 to 100 scale, 0 no effect, 100 complete control
[17] = Flood (flooded paddy test), 62 g ai/ha, scale 0 to 100, 0 no effect, 100 complete control
[18] = Flood (flooded paddy test), 125 g ai/ha, scale 0 to 100, 0 no effect, 100 complete control
[19] = Flood (flooded paddy test), 250 g ai/ha, scale 0 to 100, 0 no effect, 100 complete control
[20] = Flood, 31 g ai/ha, scale 0 to 100

Question: Which results are given for `Cc1cc(-c2ccc(Cl)cc2)nn1-c1c(OS(=O)(=O)C(C)C)cnn(C)c1=O` [Compound 50]?
Answer: Plant response rating, Goosegrass [1, 13]: 80; Plant response rating, Goosegrass [1, 14]: 98; Plant response rating, Goosegrass ([1]; 62 g ai/ha, scale 0 to 100): 100; Goosegrass plant response rating ([1]; 8 g ai/ha, scale 0 to 100): 0; Plant response rating, Surinam Grass [2, 13]: 40; Plant response rating, Surinam Grass [2, 15]: 90; Plant response rating, Surinam Grass [2, 16]: 98; Surinam Grass plant response rating ([2]; 8 g ai/ha, scale 0 to 100): 20; Plant response rating, Foxtail, Giant [3, 13]: 98; Plant response rating, Foxtail, Giant [3, 14]: 100; Plant response rating, Foxtail, Giant ([3]; 62 g ai/ha, scale 0 to 100): 100; Foxtail, Giant plant response rating ([3]; 8 g ai/ha, scale 0 to 100): 20; Plant response rating, Morningglory [4, 13]: 0; Plant response rating, Morningglory [4, 15]: 0; Plant response rating, Morningglory ([4]; 62 g ai/ha, scale 0 to 100): 30; Morningglory plant response rating ([4]; 8 g ai/ha, scale 0 to 100): 0; Plant response rating, Sunflower [5, 13]: 0; Plant response rating, Sunflower [5, 15]: 0; Plant response rating, Sunflower ([5]; 62 g ai/ha, scale 0 to 100): 20; Sunflower plant response rating ([5]; 8 g ai/ha, scale 0 to 100): 0; Plant response rating, Wheat [6, 13]: 0; Plant response rating, Wheat [6, 15]: 0; Plant response rating, Wheat [6, 16]: 0; Wheat plant response rating ([6]; 8 g ai/ha, scale 0 to 100): 0; Plant response rating, Bromegrass, Downy [7, 13]: 0; Plant response rating, Bromegrass, Downy [7, 14]: 0; Plant response rating, Bromegrass, Downy ([7]; 62 g ai/ha, scale 0 to 100): 0; Bromegrass, Downy plant response rating ([7]; 8 g ai/ha, scale 0 to 100): 0; Plant response rating, Nightshade, E. B. [8, 13]: 0; Plant response rating, Nightshade, E. B. [8, 15]: 100; Plant response rating, Nightshade, E. B. ([8]; 62 g ai/ha, scale 0 to 100): 100; Nightshade, E. B. plant response rating ([8]; 8 g ai/ha, scale 0 to 100): 0; Plant response rating, Soybean (soybean (Glycine max); [13]): 50; Plant response rating, Soybean (soybean (Glycine max); [15]): 100; Plant response rating, Soybean (soybean (Glycine max); 62 g ai/ha, scale 0 to 100): 100; Soybean plant response rating (soybean (Glycine max); 8 g ai/ha, scale 0 to 100): 0; Plant response rating, Russian Thistle [9, 13]: 0; Plant response rating, Russian Thistle [9, 15]: 0; Plant response rating, Russian Thistle ([9]; 62 g ai/ha, scale 0 to 100): 0; Russian Thistle plant response rating ([9]; 8 g ai/ha, scale 0 to 100): 0; Plant response rating, Ducksalad [10, 17]: 0; Plant response rating, Ducksalad [10, 18]: 0; Plant response rating, Ducksalad [10, 19]: 0; Plant response rating, Ducksalad [10, 20]: 0; Plant response rating, Barnyardgrass [11, 17]: 0; Plant response rating, Barnyardgrass [11, 18]: 0; Plant response rating, Barnyardgrass [11, 19]: 0; Plant response rating, Barnyardgrass [11, 20]: 0; Plant response rating, Sedge, Umbrella [12, 17]: 0; Plant response rating, Sedge, Umbrella [12, 18]: 0; Plant response rating, Sedge, Umbrella [12, 19]: 0; Plant response rating, Sedge, Umbrella [12, 20]: 0; Plant response rating, Rice (rice (Oryza sativa); [17]): 0; Plant response rating, Rice (rice (Oryza sativa); [18]): 0; Plant response rating, Rice (rice (Oryza sativa); [19]): 0; Plant response rating, Rice (rice (Oryza sativa); [20]): 0

Reference: US20100267561A1, “HERBICIDAL PYRIDAZINONE DERIVATIVES” (priority 2007, published 2010)
